Experimental data reported in ChEMBL document CHEMBL1201862, “PubChem BioAssay data set” (2004).
The source made the active and inactive calls.

How the values were obtained:
[1] = inhibitors of Vif binding to APOBEC3G peptide, primary screen, biochemical, TR-FRET, GST-Vif 1-94, biotin-A3G peptide, dose response retest (AID 1117319); format: functional;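 also: TR-FRET signal of purified GST-Vif binding a biotinylated A3G peptide; inhibitors lower the FRET signal by blocking Vif and A3G binding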
[2] = growth suppression of beta-catenin-knockout colon cells, dose response, cell-based, HCT116, human colon tumor (AID 1045); format: functional;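 also: HCT116 colon tumor cells with beta catenin knocked out; cells exposed to compound for 60 hours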
[3] = growth suppression of PTEN-null colon cells, dose response, cell-based, HCT116 PTEN knockout (AID 1047); format: functional;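 also: HCT116 colon tumor cells with PTEN knocked out; cells exposed to compound for 60 hours before readout; potency for loss of cell viability measured by luminescence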
Vero = test: host cell cytotoxicity of antiviral hits, dose response, cytotoxicity control for West Nile virus antiviral project, secondary assay (AID 1650); format: functional; settings: Chlorocebus sabaeus
[4] = molecular target: E3 ubiquitin-protein ligase Mdm2 (Homo sapiens, UniProt Q00987); test: enhancers of MDM2-luciferase reporter signal, concentration-effect titration, project on inhibitors of MDM2 ubiquitin ligase, cellular assay, luminescent readout, 384-well plate format (AID 1394); format: functional;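 also: MDM2 E3 inhibitors raise luminescence so EC50 is for signal enhancement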
Chain of E3 ubiquitin-protein ligase Mdm2 (Q00987 whole entry): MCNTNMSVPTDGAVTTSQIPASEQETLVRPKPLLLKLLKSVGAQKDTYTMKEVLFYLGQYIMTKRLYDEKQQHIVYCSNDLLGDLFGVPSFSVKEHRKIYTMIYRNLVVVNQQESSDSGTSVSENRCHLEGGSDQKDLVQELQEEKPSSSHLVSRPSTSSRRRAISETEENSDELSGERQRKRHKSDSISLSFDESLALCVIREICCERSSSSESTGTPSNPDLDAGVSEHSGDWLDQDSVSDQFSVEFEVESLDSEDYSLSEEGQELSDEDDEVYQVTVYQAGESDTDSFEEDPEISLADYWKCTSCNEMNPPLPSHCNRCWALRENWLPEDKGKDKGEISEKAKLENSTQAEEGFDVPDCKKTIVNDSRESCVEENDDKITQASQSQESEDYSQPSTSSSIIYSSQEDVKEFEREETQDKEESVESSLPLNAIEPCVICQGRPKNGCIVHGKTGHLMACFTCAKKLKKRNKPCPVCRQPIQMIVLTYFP

Cytochrome P450 1A2 = molecular target: T1, Cytochrome P450 1A2 (Homo sapiens, UniProt P05177);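 also: PubChem cytochrome P450 panel assay, CYP1A2 panel member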
T1 sequence (P05177 whole entry): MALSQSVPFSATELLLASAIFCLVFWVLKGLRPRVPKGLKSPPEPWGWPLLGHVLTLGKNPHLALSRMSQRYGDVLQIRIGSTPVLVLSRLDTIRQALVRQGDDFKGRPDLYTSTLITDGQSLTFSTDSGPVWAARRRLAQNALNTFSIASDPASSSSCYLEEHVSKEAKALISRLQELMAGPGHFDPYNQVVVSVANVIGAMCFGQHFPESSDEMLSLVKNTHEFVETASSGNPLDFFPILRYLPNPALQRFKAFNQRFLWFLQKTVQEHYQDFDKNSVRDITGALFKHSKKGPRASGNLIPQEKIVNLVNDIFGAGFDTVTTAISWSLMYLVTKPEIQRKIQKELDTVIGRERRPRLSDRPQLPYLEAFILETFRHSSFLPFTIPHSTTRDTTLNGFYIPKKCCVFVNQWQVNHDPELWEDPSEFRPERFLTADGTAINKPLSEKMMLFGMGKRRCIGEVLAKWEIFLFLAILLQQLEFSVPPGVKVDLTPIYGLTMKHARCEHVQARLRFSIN

Cytochrome P450 2C19 = Cytochrome P450 2C19 (Homo sapiens, UniProt P33261); test: Cytochrome panel assay with activity outcomes. Panel member name: p450-cyp2c19 Compounds with AC50 equal or less than 10 uM are considered active; format: functional; settings: read-out: AC50
Chain of Cytochrome P450 2C19 (P33261 whole entry): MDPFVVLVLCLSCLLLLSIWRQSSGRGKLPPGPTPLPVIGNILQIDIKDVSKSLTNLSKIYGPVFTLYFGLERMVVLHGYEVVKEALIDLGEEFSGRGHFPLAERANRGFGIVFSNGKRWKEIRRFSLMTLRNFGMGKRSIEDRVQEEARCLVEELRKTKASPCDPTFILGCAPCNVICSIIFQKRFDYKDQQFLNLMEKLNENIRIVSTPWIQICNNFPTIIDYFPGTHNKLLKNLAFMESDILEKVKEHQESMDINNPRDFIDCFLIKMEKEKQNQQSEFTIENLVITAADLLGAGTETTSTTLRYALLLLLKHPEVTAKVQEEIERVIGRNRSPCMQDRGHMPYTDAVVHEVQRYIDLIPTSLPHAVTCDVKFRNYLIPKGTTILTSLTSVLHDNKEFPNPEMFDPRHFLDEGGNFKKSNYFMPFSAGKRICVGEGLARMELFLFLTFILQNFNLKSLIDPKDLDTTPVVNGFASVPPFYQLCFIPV

[5] = microbe, parasite or virus in culture; format: functional; settings: Mycobacterium tuberculosis
[6] = M. tuberculosis growth inhibition, HTS (AID 449762); format: functional
[7] = molecular target: T2, Polyadenylate-binding protein 1 (Homo sapiens, UniProt P11940); test: PABP1 MLLE–PAM2 interaction inhibitors, dose response, miRNA deadenylation inhibitor project, biochemical, fluorescence polarization, Cy5-PAM2 peptide, secondary (AID 602260); format: functional; settings: read-out: IC50_Mean
T2 sequence (P11940 whole entry): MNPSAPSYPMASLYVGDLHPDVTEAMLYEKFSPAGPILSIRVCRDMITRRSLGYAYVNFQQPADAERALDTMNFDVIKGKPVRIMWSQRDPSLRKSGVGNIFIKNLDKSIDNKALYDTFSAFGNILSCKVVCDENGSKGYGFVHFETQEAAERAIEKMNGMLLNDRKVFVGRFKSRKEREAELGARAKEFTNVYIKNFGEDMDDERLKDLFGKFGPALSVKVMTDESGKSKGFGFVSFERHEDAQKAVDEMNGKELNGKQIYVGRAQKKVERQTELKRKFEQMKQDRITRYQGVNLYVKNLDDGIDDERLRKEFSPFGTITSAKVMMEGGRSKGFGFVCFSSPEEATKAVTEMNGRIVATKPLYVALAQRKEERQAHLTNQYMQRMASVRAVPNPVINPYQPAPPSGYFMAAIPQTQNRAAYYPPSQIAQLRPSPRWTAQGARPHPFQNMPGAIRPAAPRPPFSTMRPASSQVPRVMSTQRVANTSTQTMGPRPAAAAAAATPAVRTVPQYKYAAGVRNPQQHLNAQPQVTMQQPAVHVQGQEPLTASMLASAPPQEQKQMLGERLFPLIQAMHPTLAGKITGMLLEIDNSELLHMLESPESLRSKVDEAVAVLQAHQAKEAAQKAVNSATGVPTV

[8] = SNU-C1 cell viability reduction, dose response, CellTiter-Glo luminescence (AID 1117323); format: functional, cell-based
[9] = RKO cell viability reduction, dose response, CellTiter-Glo luminescence (AID 1117322); format: functional
[10] = CellTiter-Glo luminescent dose response of DLD-1 viability loss (AID 1117352); format: functional
[11] = molecular target: T2, Polyadenylate-binding protein 1; test: PABP1 MLLE–PAM2 binding inhibitor potency, dose response, biochemical, fluorescence polarization, FITC-PAM2 peptide (AID 602259); format: functional; settings: read-out: IC50_Mean
[12] = molecular target: T3, Microphthalmia-associated transcription factor (Homo sapiens, UniProt O75030); test: TRPM1 promoter luciferase signal decrease, dose response, MITF inhibitor project, cell-based, SK-MEL-5, cherry-picked, set 3 (AID 493073); format: functional
T3 sequence (O75030 whole entry): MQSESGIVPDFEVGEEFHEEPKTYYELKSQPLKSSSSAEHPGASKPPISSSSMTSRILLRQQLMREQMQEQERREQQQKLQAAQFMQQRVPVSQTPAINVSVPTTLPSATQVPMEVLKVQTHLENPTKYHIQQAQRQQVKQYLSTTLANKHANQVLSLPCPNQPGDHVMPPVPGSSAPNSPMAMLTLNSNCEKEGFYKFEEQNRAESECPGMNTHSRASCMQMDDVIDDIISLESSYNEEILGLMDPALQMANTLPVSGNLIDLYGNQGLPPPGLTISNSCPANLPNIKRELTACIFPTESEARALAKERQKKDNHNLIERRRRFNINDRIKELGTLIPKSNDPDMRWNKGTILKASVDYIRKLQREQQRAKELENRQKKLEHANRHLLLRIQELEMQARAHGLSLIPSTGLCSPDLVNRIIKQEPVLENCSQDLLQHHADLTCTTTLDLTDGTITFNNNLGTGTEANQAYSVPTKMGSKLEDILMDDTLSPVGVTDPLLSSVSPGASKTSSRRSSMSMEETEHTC

[13] = molecular target: T4, Histone-lysine N-methyltransferase NSD2 (Homo sapiens, UniProt O96028); format: biochemical
T4 sequence (O96028 whole entry): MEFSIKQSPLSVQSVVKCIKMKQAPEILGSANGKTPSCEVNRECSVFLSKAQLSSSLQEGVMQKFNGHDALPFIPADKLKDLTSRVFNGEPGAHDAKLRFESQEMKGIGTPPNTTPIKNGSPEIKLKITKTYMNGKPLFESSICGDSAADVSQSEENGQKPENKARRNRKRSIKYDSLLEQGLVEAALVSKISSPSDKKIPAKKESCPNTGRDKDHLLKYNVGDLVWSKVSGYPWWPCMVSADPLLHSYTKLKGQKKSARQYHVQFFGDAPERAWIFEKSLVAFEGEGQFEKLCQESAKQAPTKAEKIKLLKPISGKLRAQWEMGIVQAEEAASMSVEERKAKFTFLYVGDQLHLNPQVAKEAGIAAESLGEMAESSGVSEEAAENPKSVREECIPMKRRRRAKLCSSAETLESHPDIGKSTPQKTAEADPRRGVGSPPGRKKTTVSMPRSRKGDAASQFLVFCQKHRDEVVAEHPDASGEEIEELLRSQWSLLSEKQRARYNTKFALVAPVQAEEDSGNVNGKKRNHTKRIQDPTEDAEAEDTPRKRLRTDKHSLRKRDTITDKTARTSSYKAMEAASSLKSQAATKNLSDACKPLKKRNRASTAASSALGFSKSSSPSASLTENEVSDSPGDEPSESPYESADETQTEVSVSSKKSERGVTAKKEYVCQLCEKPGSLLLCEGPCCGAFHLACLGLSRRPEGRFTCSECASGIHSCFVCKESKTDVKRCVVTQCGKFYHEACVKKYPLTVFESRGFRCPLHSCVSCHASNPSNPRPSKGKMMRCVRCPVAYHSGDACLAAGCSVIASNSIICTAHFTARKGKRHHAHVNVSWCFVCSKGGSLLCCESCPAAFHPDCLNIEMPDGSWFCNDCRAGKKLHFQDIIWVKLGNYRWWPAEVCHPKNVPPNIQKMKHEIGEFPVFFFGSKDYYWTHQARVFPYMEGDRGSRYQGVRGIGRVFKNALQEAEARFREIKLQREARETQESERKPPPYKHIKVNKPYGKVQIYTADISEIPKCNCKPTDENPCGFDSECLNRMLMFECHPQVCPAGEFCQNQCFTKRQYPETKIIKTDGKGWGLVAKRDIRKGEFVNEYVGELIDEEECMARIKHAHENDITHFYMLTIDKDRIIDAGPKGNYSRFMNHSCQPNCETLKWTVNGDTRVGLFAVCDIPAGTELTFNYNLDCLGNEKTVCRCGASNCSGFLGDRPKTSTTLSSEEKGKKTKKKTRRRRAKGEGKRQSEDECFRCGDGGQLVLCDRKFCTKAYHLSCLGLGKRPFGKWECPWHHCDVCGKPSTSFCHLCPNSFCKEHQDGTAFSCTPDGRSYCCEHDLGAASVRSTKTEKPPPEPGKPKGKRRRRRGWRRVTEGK

[14] = cytotoxicity toward Colo320 cells – cell-based, CellTiter-Glo luminescence, IC50, dose response (AID 1117334); format: functional; settings: COLO 320
[15] = HeLa 4N DNA content increase, dose response, cell-based, IC50 (AID 1117351); format: functional
[16] = Concentration-dependent survival of SW480 colon cancer line, luminescence detection with CellTiter-Glo, half-maximal inhibitory concentration (AID 1117338); format: functional
[17] = HeLa 2N DNA content increase, dose response, cell-based, IC50 (AID 1117349); format: functional
[18] = cytotoxicity toward HCT116 cells – cell-based, CellTiter-Glo luminescence, IC50, dose response (AID 1117332); format: functional; settings: HCT-116
[19] = cytotoxicity toward HT-29 cells – cell-based, CellTiter-Glo luminescence, IC50, dose response (AID 1117330); format: functional
[20] = molecular target: T5, Long-chain-fatty-acid--AMP ligase FadD28 (Mycobacterium tuberculosis, UniProt P9WQ59); test: Fluorescence polarization aasay to screen for inhibitors that compete for the binding of FadD28 to a bisubstrate Measured in Biochemical System Using Plate Reader - 2147-01_Inhibitor_Dose_CherryPick_Activity.; format: functional, Mycobacterium tuberculosis H37Rv
T5 sequence (P9WQ59 whole entry): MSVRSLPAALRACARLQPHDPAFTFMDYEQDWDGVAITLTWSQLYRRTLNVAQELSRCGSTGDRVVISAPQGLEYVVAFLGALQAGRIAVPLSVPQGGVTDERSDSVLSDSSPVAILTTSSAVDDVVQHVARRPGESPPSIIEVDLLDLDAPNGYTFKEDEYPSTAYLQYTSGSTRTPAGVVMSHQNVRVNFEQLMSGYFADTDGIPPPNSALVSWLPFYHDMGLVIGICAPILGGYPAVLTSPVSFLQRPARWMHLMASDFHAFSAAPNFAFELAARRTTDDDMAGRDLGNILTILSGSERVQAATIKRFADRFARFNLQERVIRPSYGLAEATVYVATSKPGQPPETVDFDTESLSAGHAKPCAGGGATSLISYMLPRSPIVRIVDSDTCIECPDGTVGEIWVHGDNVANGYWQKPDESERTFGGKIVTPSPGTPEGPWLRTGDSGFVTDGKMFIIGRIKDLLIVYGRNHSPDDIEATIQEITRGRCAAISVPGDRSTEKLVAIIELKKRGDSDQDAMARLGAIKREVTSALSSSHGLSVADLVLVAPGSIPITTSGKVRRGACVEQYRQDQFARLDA

Which IC50 [1] does the source give for `CC(C)NC(=O)C1CCCN(S(=O)(=O)c2cccs2)C1` (stereo not drawn) here?
Its IC50 is > 100 µM (active).

For `COc1ccc(-c2cc(-c3ccc(C)cc3)nc(SCc3nnc(-c4ccccc4)o3)c2C#N)cc1OC`, which EC50 [2] is on record?
The EC50 was 4.36 µM (active).

And the EC50 [3]?
Its EC50 is 4.41 µM (active).

And the CC50 (Vero)?
Its CC50 is 14.1 µM (active).

For `CCN(CC(=O)Nc1ccc(N2CCOCC2)cc1)Cc1nc2ccccc2c(=O)[nH]1`, which EC50 [4] is on record?
Its EC50 is 0.03 µM (not active).

And the AC50 (Cytochrome P450 1A2)?
The AC50 was 20 µM (inconclusive).

And the AC50 (Cytochrome P450 2C19)?
The AC50 was 22.4 µM (inconclusive).

What does the source list for `C/C(=N\NC(=O)c1cc2c(s1)CCC(C)C2)c1ccncc1` (stereo not drawn)?
CC50 [5]: > 40 µM (active); IC50 [6]: > 100 µM (active)

With `CC[n+]1c(-c2ccccc2)c2cc(N)ccc2c2ccc(N)cc21` [HOMIDIUM BROMIDE] as the compound, how does the IC50 [7] read?
Its IC50 is > 66 µM (inactive).

And the IC50 [8]?
The IC50 was > 20 µM (inactive).

What about the IC50 [9] of the same compound?
The IC50 was 3.35 µM (active).

And the IC50 [10]?
Its IC50 is > 20 µM (inactive).

What about the IC50 [11] of the same compound?
Its IC50 is 40.4 µM (inactive).

And the AC50 [12]?
Its AC50 is 2.42 µM (active).

What about the AC50 [13] of the same compound?
The AC50 was 0.293 µM (active).

What about the IC50 [14] of the same compound?
The IC50 was > 20 µM (inactive).

And the IC50 [15]?
Its IC50 is > 10 µM (inactive).

What about the IC50 [16] of the same compound?
Its IC50 is > 20 µM (inactive).

And the IC50 [17]?
Its IC50 is > 10 µM (inactive).

What about the IC50 [18] of the same compound?
The IC50 was 4.44 µM (active).

And the IC50 [19]?
Its IC50 is > 20 µM (inactive).

And the AC50 [20]?
The AC50 was 27.4 µM (active).
